Laboratory results published in patent US20230374148A1, “BINDING MOLECULES THAT MULTIMERISE CD45” (UCB BIOPHARMA SRL, priority 2020, published 2023).

How the values were obtained:
Assay type in all cases: cell-based, human
M1 macrophages [1] = assay: Macrophage viability, CellTiter-Glo, M1; conditions: 24 hr, BYbe 250-2 nM, Camptothecin, Staurosporine 5 μM
Experimental: (§1) Human PBMC derived from blood leukocyte platelet-apheresis cones (NHSBT Oxford) were banked as frozen aliquots. Prior to an assay being performed, 2 vials of frozen cells, each containing 5×10^7 cells in 1 ml, were thawed in a 37° C. water bath and then added to 50 ml complete media (RPMI 1640+2 mM GlutaMAX+1% Pen/Strep, all previous supplied by Invitrogen, +10% Fetal Bovine Serum (FBS), Sigma Aldrich). Cells were spun (500 g, 5 min, at RT) and re-suspended in 30 ml complete media to wash and spun again. Cells were resuspended in 20 ml MACS buffer (PBS, pH 7.2, 0.5% bovine serum albumin (BSA), and 2 mM EDTA, Sigma Aldrich) and counted on a ChemoMetec NucleoCounter NC-3000 to determine concentration and viability. PBMCs from one donor (UCB-Cones 802) was used in this assay.
(§2) Monocyte isolation was performed using the Pan Monocyte Isolation Kit (Miltenyi Biotec, cat no. 130-096-537) and LS columns (Miltenyi Biotec, cat no 130-042-401) according to manufacturer's instructions. 100 μl of cells were removed and stored on ice to check monocyte purity post isolation. […]
(§3) One microplate was incubated for a further 24 hours in 37° C. incubator with 5% CO2 before being used to assess cell viability with CellTiter-Glo®. […] The plate was then read on the BMG Labtech PHERAstar FSX microplate reader using the CellTiter-Glo program.

M2 macrophages [2] = assay: Macrophage viability, CellTiter-Glo, M2; conditions: 24 hr, BYbe 250-2 nM, Camptothecin, Staurosporine 5 μM
Experimental: as §1, §2, §3

M1 macrophages [3] = assay: Caspase-3/7 induction, IncuCyte, M1; conditions: over 6 days, BYbe 250-2 nM, Camptothecin, Staurosporine 5 μM
Experimental: (§4) Human PBMC derived from blood leukocyte platelet-apheresis cones (NHSBT Oxford) were banked as frozen aliquots. Prior to an assay being performed, 2 vials of frozen cells, each containing 5×10^7 cells in 1 ml, were thawed in a 37° C. water bath and then added to 50 ml complete media (RPMI 1640+2 mM GlutaMAX+1% Pen/Strep, all previous supplied by Invitrogen, +10% Fetal Bovine Serum (FBS), Sigma Aldrich). Cells were spun (500 g, 5 min, at RT) and re-suspended in 30 ml complete media to wash and spun again. Cells were resuspended in 20 ml MACS buffer (PBS, pH 7.2, 0.5% bovine serum albumin (BSA), and 2 mM EDTA, Sigma Aldrich) and counted on a ChemoMetec NucleoCounter NC-3000 to determine concentration and viability. PBMCs from one donor (UCB-Cones 802) was used in this assay. Monocyte isolation was performed using the Pan Monocyte Isolation Kit (Miltenyi Biotec, cat no. 130-096-537) and LS columns (Miltenyi Biotec, cat no 130-042-401) according to manufacturer's instructions. 100 μl of cells were removed and stored on ice to check monocyte purity post isolation. Isolated cells were stained with BV421 mouse anti-human CD14 (BD Biosciences, cat no. 563743) to check for purity of monocytes using FACS. M-CSF (Sigma Aldrich, cat no. SRP3110) and GM-CSF (R&D Systems, cat no. 215-GM/CF) were prepared at 100 μg/ml. Cells were prepared in M1 media (complete media+50 ng/ml GM-CSF) or M2 media (complete media+50 ng/ml M-CSF) at a concentration of 2.5×10^5 cells/ml. 200 μl cells were plated into two Corning 96 well Black polystyrene microplates (Sigma Aldrich) and incubated at 37° C., 5% CO2. Following a 3-day incubation at 37° C., 5% CO2, the plate was spun (500 g, 5 min, RT), buffer was aspirated, the cells were washed once with PBS and then resuspended in 200 μL of M1 media or M2 media. […] The caspase dye was measured with the green laser (350 ms) and the cytotox dye was measured with a red laser (650 ms). The green dye signal was analysed using Incucyte® Zoom2016B. […]

M2 macrophages [4] = assay: Caspase-3/7 induction, IncuCyte, M2; conditions: over 6 days, BYbe 250-2 nM, Camptothecin, Staurosporine 5 μM
Experimental: as §4

Compound | cell viability (CellTiter-Glo) (M1 macrophages [1]) | cell viability (CellTiter-Glo) (M2 macrophages [2]) | levels of Caspase-3/7 (M1 macrophages [3]) | levels of Caspase-3/7 (M2 macrophages [4])
CC[C@@]1(O)C(=O)OCc2c1cc1n(c2=O)Cc2cc3ccccc3nc2-1 [Camptothecin] | reduced the viability | reduced the viability | significant levels | significant levels
CN[C@@H]1C[C@H]2O[C@@](C)([C@@H]1OC)n1c3ccccc3c3c4c(c5c6ccccc6n2c5c31)C(=O)NC4 [Staurosporine] | little or no viable cells detected | little or no viable cells detected | very low | very low
